# Source: patent US9796711B2, “Substituted pyrazolo[3,4-b]pyridin-6-carboxylic acids and method of use” (AbbVie S.àr.l., priority 2015, dated 2017)
# Assays:
# [1] = target: T1, ΔF508-CFTR (Homo sapiens, UniProt P13569, DEL508-508); experiment: CFTR cell surface levels using HRP-tagged ΔF508-CFTR expressing CFBE cells, in the presence of a co-corrector; assay type: cell-based; details: HRP-tagged ΔF508-CFTR expressing CFBE cells, in the presence of 3 μM co-corrector; for EC50: read-out: EC50
# T1 construct: host or cells: CFBE41o-, doxycycline-inducible
# How it was run: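 Cells were seeded with 0.5 μg/mL doxycycline and held 68 h at 37 °C. Test compounds plus 3 μM co-corrector (final 0.1% DMSO) were then added for 20 h at 33 °C. Washed cells received HRP substrate, and luminescence was normalized between DMSO and 3 μM co-corrector controls.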
# [2] = target: T1, ΔF508-CFTR; experiment: CFTR cell surface levels using HRP-tagged ΔF508-CFTR expressing CFBE cells, intrinsic corrector capacity; assay type: cell-based; details: for EC50: read-out: EC50
# How it was run: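 Here the cells express ΔF508-CFTR with horseradish peroxidase inserted in extracellular loop 4, so only rescued channel at the surface gives luminescent signal. Compounds act on their own, 20 h at the reduced temperature of 33 °C; values are percent activity relative to DMSO and a 3 μM corrector.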
# [3] = HRP-tagged ΔF508-CFTR expressing CFBE cells, intrinsic corrector capacity (no co-corrector), 33° C., 20 hours
# [4] = HRP-tagged ΔF508-CFTR CFBE41o- cells, compounds alone (intrinsic corrector capacity), 20 hours at 33° C., positive control 3 μM corrector
# [5] = HRP-tagged ΔF508-CFTR CFBE41o- cells, compounds alone (intrinsic corrector capacity), 20 hours at 33° C.
# [6] = HRP-tagged ΔF508-CFTR CFBE cells, compound alone (intrinsic corrector capacity), 20 hours at 33° C.
# T1 sequence (P13569 with tags, fused parts or gaps DEL508-508): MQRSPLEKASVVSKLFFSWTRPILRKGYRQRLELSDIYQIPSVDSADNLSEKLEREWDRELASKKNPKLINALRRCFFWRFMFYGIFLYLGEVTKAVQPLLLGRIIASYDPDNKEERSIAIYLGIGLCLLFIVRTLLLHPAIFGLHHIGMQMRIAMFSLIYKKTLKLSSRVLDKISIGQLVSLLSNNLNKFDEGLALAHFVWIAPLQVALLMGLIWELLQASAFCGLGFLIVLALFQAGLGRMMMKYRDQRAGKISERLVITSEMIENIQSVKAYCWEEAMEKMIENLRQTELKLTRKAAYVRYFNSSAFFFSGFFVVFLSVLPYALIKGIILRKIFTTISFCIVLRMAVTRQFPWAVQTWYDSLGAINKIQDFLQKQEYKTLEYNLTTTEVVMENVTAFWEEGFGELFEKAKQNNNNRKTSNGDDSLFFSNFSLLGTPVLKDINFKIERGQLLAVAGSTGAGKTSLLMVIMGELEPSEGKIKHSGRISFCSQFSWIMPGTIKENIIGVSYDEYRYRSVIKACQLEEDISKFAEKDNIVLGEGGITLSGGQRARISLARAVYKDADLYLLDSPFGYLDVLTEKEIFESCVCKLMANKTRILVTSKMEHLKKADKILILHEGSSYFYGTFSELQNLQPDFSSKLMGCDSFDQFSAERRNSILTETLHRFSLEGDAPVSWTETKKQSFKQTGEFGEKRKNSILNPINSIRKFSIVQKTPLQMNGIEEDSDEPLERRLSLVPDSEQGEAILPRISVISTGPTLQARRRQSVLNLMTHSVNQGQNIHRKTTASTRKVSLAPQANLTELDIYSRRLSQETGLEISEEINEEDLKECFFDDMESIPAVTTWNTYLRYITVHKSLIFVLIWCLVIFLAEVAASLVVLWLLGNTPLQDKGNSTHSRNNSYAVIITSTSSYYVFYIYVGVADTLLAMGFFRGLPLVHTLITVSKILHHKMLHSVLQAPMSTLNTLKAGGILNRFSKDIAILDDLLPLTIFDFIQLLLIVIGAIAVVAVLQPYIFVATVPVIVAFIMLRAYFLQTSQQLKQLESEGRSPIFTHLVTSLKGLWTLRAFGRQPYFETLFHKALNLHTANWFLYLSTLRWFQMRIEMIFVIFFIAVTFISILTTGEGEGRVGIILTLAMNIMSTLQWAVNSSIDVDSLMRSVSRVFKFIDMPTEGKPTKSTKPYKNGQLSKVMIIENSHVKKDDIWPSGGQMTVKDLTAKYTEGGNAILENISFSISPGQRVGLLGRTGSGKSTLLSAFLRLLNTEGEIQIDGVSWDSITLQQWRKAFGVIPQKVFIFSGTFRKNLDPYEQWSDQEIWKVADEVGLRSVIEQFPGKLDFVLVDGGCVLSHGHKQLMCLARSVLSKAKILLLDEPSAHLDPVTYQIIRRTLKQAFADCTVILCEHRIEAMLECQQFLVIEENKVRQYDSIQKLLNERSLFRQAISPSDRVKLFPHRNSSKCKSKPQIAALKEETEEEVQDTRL
SMILES,% Activation [1],EC50 [1],"% Activation [2, 3]","EC50 [2, 3]","% Activation [2, 4]","EC50 [2, 5]","% Activation [2, 6]","EC50 [2, 6]"
"N#CC1CCN(C2CCN(c3cc(C(=O)O)nc4c3c(C3CCC3)nn4-c3ccc(F)cc3)CC2)C1 (stereo not shown) [compound 870, 4-[4-(3-cyanopyrrolidin-1-yl)piperidin-1-yl]-3-cyclobutyl-1-(4-fluorophenyl)-1H-pyrazolo[3,4-b]pyridine-6-carboxylic acid]",611.45%,171 nM,304.4%,1040 nM,–,–,–,–
"COC1CN(c2cc(C(=O)O)nc3c2c(C(C)C)nn3-c2cccc(C)c2)C1 [compound 212, 4-(3-methoxyazetidin-1-yl)-1-(3-methylphenyl)-3-(propan-2-yl)-1H-pyrazolo[3,4-b]pyridine-6-carboxylic acid]",386.9%,1490 nM,–,–,139.7%,2640 nM,–,–
"CC(C)(C)OC(=O)N1CCC(Oc2nn(-c3ccccc3)c3nc(C(=O)O)cc(-c4ccc(N5CCC(C#N)CC5)nc4)c23)CC1 [compound 553, 3-{[1-(tert-butoxycarbonyl)piperidin-4-yl]oxy}-4-[6-(4-cyanopiperidin-1-yl)pyridin-3-yl]-1-phenyl-1H-pyrazolo[3,4-b]pyridine-6-carboxylic acid]",419.05%,119 nM,189.7%,370 nM,–,–,–,–
"CCN(CC)C1CCN(c2cc(C(=O)O)nc3c2c(C2CCC2)nn3-c2ccccc2)CC1 [compound 689, 3-cyclobutyl-4-[4-(diethylamino)piperidin-1-yl]-1-phenyl-1H-pyrazolo[3,4-b]pyridine-6-carboxylic acid]",329%,803 nM,182.7%,1570 nM,–,–,–,–
"CC(C)Oc1nn(C2CCCCC2)c2nc(C(=O)O)cc(-c3ccc(C#N)cc3)c12 [compound 923, 4-(4-cyanophenyl)-1-cyclohexyl-3-[(propan-2-yl)oxy]-1H-pyrazolo[3,4-b]pyridine-6-carboxylic acid]",263%,380 nM,–,–,–,–,60.466%,355 nM
"COCCN(C)c1cc(C(=O)O)nc2c1c(C1CCC1)nn2-c1ccccc1 [compound 422, 3-cyclobutyl-4-[(2-methoxyethyl)(methyl)amino]-1-phenyl-1H-pyrazolo[3,4-b]pyridine-6-carboxylic acid]",336.05%,1000 nM,131.9%,1620 nM,–,–,–,–
"CC(C)c1nn(-c2cccc(N(C)C)c2)c2nc(C(=O)O)cc(N3CCC(C#N)CC3)c12 [compound 329, 4-(4-cyanopiperidin-1-yl)-1-[3-(dimethylamino)phenyl]-3-(propan-2-yl)-1H-pyrazolo[3,4-b]pyridine-6-carboxylic acid]",454.57%,307 nM,–,–,239.4%,558 nM,–,–
"CC(C)c1nn(C2CCCCC2)c2nc(C(=O)O)cc(-c3cnc(N4CCC(C#N)CC4)nc3)c12 [compound 235, 4-[2-(4-cyanopiperidin-1-yl)pyrimidin-5-yl]-1-cyclohexyl-3-(propan-2-yl)-1H-pyrazolo[3,4-b]pyridine-6-carboxylic acid]",403.1%,743 nM,–,–,206.8%,832 nM,–,–
"COCCN(C)c1ncc(-c2cc(C(=O)O)nc3c2c(C(C)C)nn3-c2cccc(N3CCOCC3)c2)cn1 [compound 230, 4-{2-[(2-methoxyethyl)(methyl)amino]pyrimidin-5-yl}-1-[3-(morpholin-4-yl)phenyl]-3-(propan-2-yl)-1H-pyrazolo[3,4-b]pyridine-6-carboxylic acid]",507.3%,514 nM,–,–,368.85%,1490 nM,–,–
"Cc1nn(-c2ccccc2)c2nc(C(=O)O)cc(OCCN3CCCC3)c12 [compound 342, 3-methyl-1-phenyl-4-[2-(pyrrolidin-1-yl)ethoxy]-1H-pyrazolo[3,4-b]pyridine-6-carboxylic acid]",138.5%,3370 nM,–,–,19.4%,7500 nM,–,–
